# Test results: patent US20160082015A1, “METHODS, COMPOSITIONS AND KITS FOR PROMOTING MOTOR NEURON SURVIVAL AND TREATING AND DIAGNOSING NEURODEGENERATIVE DISORDERS” (PRESIDENT AND FELLOWS OF HARVARD COLLEGE, priority 2013, published 2016)
# Experiments:
# SOD1^G93A protein = assay: SOD1 protein levels by Western blotting and single cell imaging; type: cell-based, human
# Experimental: In FIG. 5A cultures grown for 21 days in the indicated conditions were analyzed for levels of human SOD1 protein. The antibody used was specific for human SOD1, as is seen by the lack of staining on wild-type mouse MNs (HB9::GFP). When analyzed on day 21, levels of mutant SOD1^G93A protein, but not wt SOD1 protein, were decreased when cells were treated with kenpaullone in the absence of trophic factors. When analyzed on day 21, SOD1^G93A protein, but not wt SOD1 protein, was decreased when cultures were treated with kenpaullone in the presence of trophic factors as well (FIG. 5B). […] By this analysis, again on day 21, the average amount of SOD1 per MN was decreased by kenpaullone treatment in both +TF and −TF conditions. Scale bar represents 50 μm (FIG. 5C). Data are presented as mean±SEM. * p<0.05, *** p<0.001 (Student's t test, two-tailed).
# Immunostaining was carried out using standard protocols (Makhortova et al., 2011). […]
# Since the additional death undergone by the SOD1^G93A/HB9::GFP MNs seems likely to relate to their expression of high levels of SOD1^G93A protein, one possibility is that kenpaullone could act in part by reducing those levels. Kenpaullone was added to cultures on day 4, and the levels of mutant SOD1^G93A protein were analyzed by Western blotting on day 21 (FIGS. 5A and 5B). […]
# HB9::GFP MNs = assay: Whole-cell voltage-clamp and current-clamp recordings; type: cell-based, mouse; settings: −TF/+kenpaullone, 3 days
# Experimental: Images show synapsin (yellow) and PSD95 (red) staining on a kenpaullone-treated MN. Arrows indicate examples of synapses on MNs. Data are presented as mean±SEM. Scale bar represents 50 μm. […] HB9::GFP MNs treated for 3 days in the absence of trophic factors (−TF/+kenpaullone) were compared to MNs that were grown in complete medium (+TF) in terms of functional sodium and potassium currents, action potentials, response to excitatory neurotransmitter (kainate, 100 μM), and response to inhibitory neurotransmitter (GABA, 100 μM).
# Whole-cell voltage-clamp and current-clamp recordings were performed as described (Son et al., 2011).
# To examine whether kenpaullone could maintain neuronal health during trophic factor withdrawal, the inventors also compared the electrophysiological properties of MNs grown in complete medium (+TF) with those of cells in trophic factor-deficient (−TF) medium with or without kenpaullone supplementation (FIGS. 4C and 10G). First of all, when the inventors attempted to record from cells grown in medium lacking both trophic factors and kenpaullone, the inventors were unable to obtain stable recordings despite a significant number of patch attempts. […] The inventors also recorded responses to excitatory neurotransmitters, such as kainate, and Inhibitory transmitters, such as GABA, in the two sets of MNs.
# [1] = test system: GSK-3-deficient MN cultures; assay: MN survival using GSK-3 knockout lines; type: cell-based, mouse; settings: trophic factors withdrawn
# Source text: In these cultures, approximately 70% of Isl+/MAP2+ cells were GFP+(i.e., MNs). However, after trophic factor withdrawal, because MNs die selectively under these conditions, only about 50% of Isl+/MAP2+ cells were GFP+MNs. This means that counting Isl+/MAP2+ cells could overestimate the amount of survival after trophic factor withdrawal by approximately 40%. When deprived of neurotrophins, 35% of wild-type Isl+/MAP2+ cells survived, while 44%, 57% and 54% of Isl+/MAP2+ cells in GSK-3[…]-KO, GSK-3[…]-KO and 3/4-KO cultures survived. Using the correction factor for overcounting surviving MNs, this would mean that wild-type MN survival would be approximately 25%, while the KO MNs would have 31%, 41% and 39% survival, respectively.
# The inventors used another approach to address the issue of GSK-3 and survival. The inventors produced MNs from the following mouse ESC lines: GSK-3α^−/− (GSK-3α-KO), GSK-3^−/− (GSK-3β-KO), and GSK-3α^+/−/GSK-3β^−/− (3/4-KO). Note that ESCs that are GSK-3α^−/−/GSK-3β^−/− were not able to differentiate into neurons (Doble et al., 2007). Cell death was again initiated by withdrawal of trophic factors and the ability of kenpaullone to promote survival was evaluated. […] The inventors validated this staining method using MN cultures prepared from Hb9::GFP ESCs. In these cultures, approximately 70% of Isl^+/MAP2^+ cells were GFP^+ (i.e., MNs). […]
# PAK 4, 5 and 6 = settings: cited from earlier work
structure (smiles),measurement,setting,value
O=C1Cc2c([nH]c3ccc(Br)cc23)-c2ccccc2N1 [Kenpaullone],levels of SOD1^G93A protein,"SOD1^G93A protein; added day 4, Western blotting day 21, with and without trophic factors",sharp decrease
same,"mutant protein levels, untreated versus treated cultures",SOD1^G93A protein; until sometime after 15 days of treatment,no differences
same,electrophysiological properties compared with MNs in complete medium (+TF),HB9::GFP MNs,no significant difference
same,MN survival in GSK-3-deficient cultures,[1],still active
same,"inhibition of PAK 4, 5 and 6","PAK 4, 5 and 6",inhibits
